Assay results: BindingDB's records for doi:10.1016/s0960-894x(99)00336-4 (Merck Research Laboratories, 1999)

Experiment: Inhibitory activity against Calcineurin (CaN phosphatase)

## CC[C@@H]1/C=C(\C)C[C@H](C)C[C@H](OC)[C@H]2O[C@@](O)(C(=O)C(=O)N3CCCC[C@H]3C(=O)O[C@H](/C(C)=C/C3CC[C@@H](OC[C@H](O)c4ccc(F)c(F)c4)[C@H](OC)C3)[C@H](C)[C@H](O)CC1=O)[C@H](C)C[C@@H]2OC (stereo partly specified) [12-(2-{4-[2-(3,4-Difluoro-phenyl)-2-hydroxy-ethoxy]-3-methoxy-cyclohexyl}-1-methyl-vinyl)-17-ethyl-1,14-dihydroxy-23,25-dimethoxy-13,19,21,27-tetramethyl-11,28-dioxa-4-aza-tricyclo[22.3.1.0*4,9*]octacos-18-ene-2,3,10,16-tetraone]
  IC50: 8.7 nM

## CC[C@@H]1/C=C(\C)C[C@H](C)C[C@H](OC)[C@H]2O[C@@](O)(C(=O)C(=O)N3CCCC[C@H]3C(=O)O[C@H](/C(C)=C/C3CC[C@@H](OC[C@H](O)c4cccc(C(F)(F)F)c4)[C@H](OC)C3)[C@H](C)[C@H](O)CC1=O)[C@H](C)C[C@@H]2OC (stereo partly specified) [17-Ethyl-1,14-dihydroxy-12-(2-{4-[2-hydroxy-2-(3-trifluoromethyl-phenyl)-ethoxy]-3-methoxy-cyclohexyl}-1-methyl-vinyl)-23,25-dimethoxy-13,19,21,27-tetramethyl-11,28-dioxa-4-aza-tricyclo[22.3.1.0*4,9*]octacos-18-ene-2,3,10,16-tetraone]
  IC50: 5.9 nM

## C=CC[C@@H]1/C=C(\C)C[C@H](C)C[C@H](OC)[C@H]2O[C@@](O)(C(=O)C(=O)N3CCCC[C@H]3C(=O)O[C@H](/C(C)=C/[C@@H]3CC[C@@H](O)[C@H](OC)C3)[C@H](C)[C@@H](O)CC1=O)[C@H](C)C[C@@H]2OC [(E)-(1R,9S,12S,13R,14R,21S,23S,24R,25S,27R)-17-Allyl-1,14-dihydroxy-12-[(E)-2-((3R,4R)-4-hydroxy-3-methoxy-cyclohexyl)-1-methyl-vinyl]-23,25-dimethoxy-13,19,21,27-tetramethyl-11,28-dioxa-4-aza-tricyclo[22.3.1.0*4,9*]octacos-18-ene-2,3,10,16-tetraone]
  IC50: 15 nM

## CC[C@@H]1/C=C(\C)C[C@H](C)C[C@H](OC)[C@H]2O[C@@](O)(C(=O)C(=O)N3CCCC[C@H]3C(=O)O[C@H](/C(C)=C/C3CC[C@@H](OC[C@H](O)c4cc(C)cc(C)c4)[C@H](OC)C3)[C@H](C)[C@H](O)CC1=O)[C@H](C)C[C@@H]2OC (stereo partly specified) [12-(2-{4-[2-(3,5-Dimethyl-phenyl)-2-hydroxy-ethoxy]-3-methoxy-cyclohexyl}-1-methyl-vinyl)-17-ethyl-1,14-dihydroxy-23,25-dimethoxy-13,19,21,27-tetramethyl-11,28-dioxa-4-aza-tricyclo[22.3.1.0*4,9*]octacos-18-ene-2,3,10,16-tetraone]
  IC50: 8.7 nM

## CC[C@@H]1/C=C(\C)C[C@H](C)C[C@H](OC)[C@H]2O[C@@](O)(C(=O)C(=O)N3CCCC[C@H]3C(=O)O[C@H](/C(C)=C/C3CC[C@@H](OC[C@@H](O)c4cc5ccccc5s4)[C@H](OC)C3)[C@H](C)[C@H](O)CC1=O)[C@H](C)C[C@@H]2OC (stereo partly specified) [12-{2-[4-(2-Benzo[b]thiophen-2-yl-2-hydroxy-ethoxy)-3-methoxy-cyclohexyl]-1-methyl-vinyl}-17-ethyl-1,14-dihydroxy-23,25-dimethoxy-13,19,21,27-tetramethyl-11,28-dioxa-4-aza-tricyclo[22.3.1.0*4,9*]octacos-18-ene-2,3,10,16-tetraone]
  IC50: 4 nM

## CC[C@@H]1/C=C(\C)C[C@H](C)C[C@H](OC)[C@H]2O[C@@](O)(C(=O)C(=O)N3CCCC[C@H]3C(=O)O[C@H](/C(C)=C/C3CC[C@@H](OC[C@@H](O)c4cc(C)cc(C)c4)[C@H](OC)C3)[C@H](C)[C@H](O)CC1=O)[C@H](C)C[C@@H]2OC (stereo partly specified) [12-(2-{4-[2-(3,5-Dimethyl-phenyl)-2-hydroxy-ethoxy]-3-methoxy-cyclohexyl}-1-methyl-vinyl)-17-ethyl-1,14-dihydroxy-23,25-dimethoxy-13,19,21,27-tetramethyl-11,28-dioxa-4-aza-tricyclo[22.3.1.0*4,9*]octacos-18-ene-2,3,10,16-tetraone]
  IC50: 7.9 nM

## CC[C@@H]1/C=C(\C)C[C@H](C)C[C@H](OC)[C@H]2O[C@@](O)(C(=O)C(=O)N3CCCC[C@H]3C(=O)O[C@H](/C(C)=C/C3CC[C@@H](OC[C@@H](O)c4cccc(C(F)(F)F)c4)[C@H](OC)C3)[C@H](C)[C@H](O)CC1=O)[C@H](C)C[C@@H]2OC (stereo partly specified) [17-Ethyl-1,14-dihydroxy-12-(2-{4-[2-hydroxy-2-(3-trifluoromethyl-phenyl)-ethoxy]-3-methoxy-cyclohexyl}-1-methyl-vinyl)-23,25-dimethoxy-13,19,21,27-tetramethyl-11,28-dioxa-4-aza-tricyclo[22.3.1.0*4,9*]octacos-18-ene-2,3,10,16-tetraone]
  IC50: 4.9 nM

## CC[C@@H]1/C=C(\C)C[C@H](C)C[C@H](OC)[C@H]2O[C@@](O)(C(=O)C(=O)N3CCCC[C@H]3C(=O)O[C@H](/C(C)=C/C3CC[C@@H](OC[C@@H](O)c4ccc5ccccc5c4)[C@H](OC)C3)[C@H](C)[C@H](O)CC1=O)[C@H](C)C[C@@H]2OC (stereo partly specified) [17-Ethyl-1,14-dihydroxy-12-{2-[4-(2-hydroxy-2-naphthalen-2-yl-ethoxy)-3-methoxy-cyclohexyl]-1-methyl-vinyl}-23,25-dimethoxy-13,19,21,27-tetramethyl-11,28-dioxa-4-aza-tricyclo[22.3.1.0*4,9*]octacos-18-ene-2,3,10,16-tetraone]
  IC50: 2.8 nM

## CC[C@@H]1/C=C(\C)C[C@H](C)C[C@H](OC)[C@H]2O[C@@](O)(C(=O)C(=O)N3CCCC[C@H]3C(=O)O[C@H](/C(C)=C/C3CC[C@@H](OC[C@@H](O)c4ccc(F)c(F)c4)[C@H](OC)C3)[C@H](C)[C@H](O)CC1=O)[C@H](C)C[C@@H]2OC (stereo partly specified) [12-(2-{4-[2-(3,4-Difluoro-phenyl)-2-hydroxy-ethoxy]-3-methoxy-cyclohexyl}-1-methyl-vinyl)-17-ethyl-1,14-dihydroxy-23,25-dimethoxy-13,19,21,27-tetramethyl-11,28-dioxa-4-aza-tricyclo[22.3.1.0*4,9*]octacos-18-ene-2,3,10,16-tetraone]
  IC50: 7.3 nM

## CC[C@@H]1/C=C(\C)C[C@H](C)C[C@H](OC)[C@H]2O[C@@](O)(C(=O)C(=O)N3CCCC[C@H]3C(=O)O[C@H](/C(C)=C/C3CC[C@@H](OC[C@H](O)c4cc5ccccc5s4)[C@H](OC)C3)[C@H](C)[C@H](O)CC1=O)[C@H](C)C[C@@H]2OC (stereo partly specified) [12-{2-[4-(2-Benzo[b]thiophen-2-yl-2-hydroxy-ethoxy)-3-methoxy-cyclohexyl]-1-methyl-vinyl}-17-ethyl-1,14-dihydroxy-23,25-dimethoxy-13,19,21,27-tetramethyl-11,28-dioxa-4-aza-tricyclo[22.3.1.0*4,9*]octacos-18-ene-2,3,10,16-tetraone]
  IC50: 4.2 nM

## CC[C@@H]1/C=C(\C)C[C@H](C)C[C@H](OC)[C@H]2O[C@@](O)(C(=O)C(=O)N3CCCC[C@H]3C(=O)O[C@H](/C(C)=C/C3CC[C@@H](OC[C@H](O)c4ccc5ccccc5c4)[C@H](OC)C3)[C@H](C)[C@H](O)CC1=O)[C@H](C)C[C@@H]2OC (stereo partly specified) [17-Ethyl-1,14-dihydroxy-12-{2-[4-(2-hydroxy-2-naphthalen-2-yl-ethoxy)-3-methoxy-cyclohexyl]-1-methyl-vinyl}-23,25-dimethoxy-13,19,21,27-tetramethyl-11,28-dioxa-4-aza-tricyclo[22.3.1.0*4,9*]octacos-18-ene-2,3,10,16-tetraone]
  IC50: 7.3 nM
